We go through 1 molecule from paper PMC10291556 (Journal of Medicinal Chemistry, 2023).

SMILES strings stand for the structures.

This data set can be described thus: NMR reduction studies with GSH or ascorbic acid. Format: physicochemical. To be noted: up to 10 equiv of reducing agent, 48 h, 37 °C, PBS/D2O, 1H NMR. As to the method: Thus, all compounds were >95% pure by NMR and HPLC analyses. NMR reduction studies were also undertaken where excess equivalents of reducing agents GSH or ascorbic acid were added to the sample before undertaking multiple NMR measurements over a 48 h period at 37 °C. These reducing agents were chosen to mimic the reducing capacity of the […] environment of the blood and tissue. […] However, once inside the cell, reactions with intracellular components might be induced, rendering the prodrug biodegradable. […] Therefore, the complex is unlikely to be reduced in the bloodstream. Monitoring the Pt(IV) peak, falling as the Pt(II) peak rises, would be ideal for further proof of the stability of these complexes, but the Pt(IV) resonance falls outside the detectable range of our instrument.
One equivalent of the complex was dissolved in 500 μL of PBS using D2O for a ^1H NMR experiment performed on a Bruker AVANCE 400 MHz NMR spectrometer, with 50 dummy scans (approx. 5 min) to allow the sample to reach 37 °C before 128 scans were taken. The sample was removed, and the reducing agent was quickly added. Then the NMR measurement was taken again (50 dummy scans followed by 128 scans). The NMR was subsequently set up to measure one 128-scan experiment after another for 4 h, at which point the sample was removed, stored, and scanned again after 24 and 48 h. […]

For the molecule `Cc1c(C)c2c3c4c1=CC=C[N]4[Pt][N]3C=CC=2.NCCNC(=O)Cc1ccccc1Nc1c(Cl)cccc1Cl.NCCNC(=O)Cc1ccccc1Nc1c(Cl)cccc1Cl.N[C@H]1CCCC[C@@H]1N` [complex 4, Pt^IV56MeSS(DCF)2], the “stability towards reduction by GSH or ascorbic acid” value is on record as “the compound had not been reduced”.
